Assay results from ChEMBL document CHEMBL3991601, “The target landscape of clinical kinase drugs” (Science, 2017).
Activity calls are given as the source filed them.

Tests used:
[1] = molecular target: T1, STE20-related kinase adapter protein alpha (Homo sapiens, UniProt Q7RTN6)
T1 sequence (Q7RTN6 whole entry): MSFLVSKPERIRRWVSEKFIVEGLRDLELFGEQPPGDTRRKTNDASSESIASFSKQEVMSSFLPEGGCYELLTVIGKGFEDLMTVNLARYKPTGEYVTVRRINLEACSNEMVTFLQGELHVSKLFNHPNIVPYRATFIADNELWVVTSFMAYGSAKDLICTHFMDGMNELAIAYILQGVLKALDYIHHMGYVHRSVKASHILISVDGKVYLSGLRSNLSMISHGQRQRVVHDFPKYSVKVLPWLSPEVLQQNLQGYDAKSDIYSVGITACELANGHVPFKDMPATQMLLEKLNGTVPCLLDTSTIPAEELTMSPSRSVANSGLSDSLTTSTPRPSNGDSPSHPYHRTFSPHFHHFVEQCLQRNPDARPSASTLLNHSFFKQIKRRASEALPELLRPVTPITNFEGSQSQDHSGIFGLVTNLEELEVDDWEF

[2] = molecular target: T2, Serine/threonine-protein kinase STK11 (Homo sapiens, UniProt Q15831)
T2 sequence (Q15831 whole entry): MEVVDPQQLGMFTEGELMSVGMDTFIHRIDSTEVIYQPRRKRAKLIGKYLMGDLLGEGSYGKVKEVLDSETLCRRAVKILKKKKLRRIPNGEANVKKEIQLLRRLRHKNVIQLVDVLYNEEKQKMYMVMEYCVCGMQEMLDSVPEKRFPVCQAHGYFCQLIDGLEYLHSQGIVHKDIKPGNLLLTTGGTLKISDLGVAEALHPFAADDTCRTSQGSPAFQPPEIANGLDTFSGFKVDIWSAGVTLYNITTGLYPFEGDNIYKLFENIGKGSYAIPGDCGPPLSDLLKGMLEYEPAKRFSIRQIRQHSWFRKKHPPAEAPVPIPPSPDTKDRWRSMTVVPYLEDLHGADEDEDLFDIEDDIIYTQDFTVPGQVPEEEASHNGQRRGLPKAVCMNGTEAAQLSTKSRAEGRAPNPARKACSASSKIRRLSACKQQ

[3] = molecular target: T3, Structural maintenance of chromosomes protein 1A (Homo sapiens, UniProt Q14683)
T3 sequence (Q14683 whole entry): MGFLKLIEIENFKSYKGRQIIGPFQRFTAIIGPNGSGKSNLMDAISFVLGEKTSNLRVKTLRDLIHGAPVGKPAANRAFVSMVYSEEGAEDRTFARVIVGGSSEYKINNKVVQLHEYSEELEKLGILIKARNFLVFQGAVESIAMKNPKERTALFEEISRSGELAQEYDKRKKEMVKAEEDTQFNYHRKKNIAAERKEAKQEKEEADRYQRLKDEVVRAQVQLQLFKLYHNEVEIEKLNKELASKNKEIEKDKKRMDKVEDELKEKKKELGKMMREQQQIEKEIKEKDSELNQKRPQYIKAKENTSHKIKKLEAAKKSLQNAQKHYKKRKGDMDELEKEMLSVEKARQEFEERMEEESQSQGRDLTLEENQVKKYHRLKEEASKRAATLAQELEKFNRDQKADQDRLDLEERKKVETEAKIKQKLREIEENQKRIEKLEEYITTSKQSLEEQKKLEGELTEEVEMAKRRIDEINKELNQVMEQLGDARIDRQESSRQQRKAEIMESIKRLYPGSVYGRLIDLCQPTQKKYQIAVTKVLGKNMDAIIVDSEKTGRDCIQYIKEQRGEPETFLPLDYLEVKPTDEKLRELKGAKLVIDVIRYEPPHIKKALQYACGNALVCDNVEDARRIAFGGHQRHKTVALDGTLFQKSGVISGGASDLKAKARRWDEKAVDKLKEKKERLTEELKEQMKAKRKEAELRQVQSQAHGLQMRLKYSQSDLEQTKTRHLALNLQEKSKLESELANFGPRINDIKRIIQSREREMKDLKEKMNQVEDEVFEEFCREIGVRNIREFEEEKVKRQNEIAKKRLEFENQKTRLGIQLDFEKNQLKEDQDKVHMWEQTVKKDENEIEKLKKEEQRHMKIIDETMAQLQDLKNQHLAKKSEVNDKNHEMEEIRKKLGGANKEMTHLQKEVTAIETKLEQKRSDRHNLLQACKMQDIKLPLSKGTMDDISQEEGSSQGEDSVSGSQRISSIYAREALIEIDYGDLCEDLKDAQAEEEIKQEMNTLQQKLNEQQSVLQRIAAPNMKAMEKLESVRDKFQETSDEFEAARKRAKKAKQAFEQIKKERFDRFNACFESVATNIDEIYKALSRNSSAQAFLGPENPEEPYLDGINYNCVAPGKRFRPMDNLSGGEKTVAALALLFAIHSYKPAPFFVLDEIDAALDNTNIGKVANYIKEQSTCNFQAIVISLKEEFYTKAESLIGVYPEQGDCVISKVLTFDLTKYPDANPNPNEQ

[4] = molecular target: Mitogen-activated protein kinase 1 (Homo sapiens, UniProt P28482)
Mitogen-activated protein kinase 1, sequence (P28482 whole entry): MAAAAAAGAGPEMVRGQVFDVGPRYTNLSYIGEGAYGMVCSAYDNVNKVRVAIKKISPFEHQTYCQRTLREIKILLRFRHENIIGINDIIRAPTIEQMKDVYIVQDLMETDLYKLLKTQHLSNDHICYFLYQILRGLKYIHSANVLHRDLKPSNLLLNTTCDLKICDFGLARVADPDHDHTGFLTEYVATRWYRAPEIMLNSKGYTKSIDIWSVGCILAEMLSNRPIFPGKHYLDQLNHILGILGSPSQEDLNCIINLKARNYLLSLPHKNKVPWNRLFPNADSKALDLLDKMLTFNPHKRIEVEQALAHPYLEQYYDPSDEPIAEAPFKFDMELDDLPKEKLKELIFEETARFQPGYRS

[5] = molecular target: T4, Serine/threonine-protein kinase TAO3 (Homo sapiens, UniProt Q9H2K8)
T4 sequence (Q9H2K8 whole entry): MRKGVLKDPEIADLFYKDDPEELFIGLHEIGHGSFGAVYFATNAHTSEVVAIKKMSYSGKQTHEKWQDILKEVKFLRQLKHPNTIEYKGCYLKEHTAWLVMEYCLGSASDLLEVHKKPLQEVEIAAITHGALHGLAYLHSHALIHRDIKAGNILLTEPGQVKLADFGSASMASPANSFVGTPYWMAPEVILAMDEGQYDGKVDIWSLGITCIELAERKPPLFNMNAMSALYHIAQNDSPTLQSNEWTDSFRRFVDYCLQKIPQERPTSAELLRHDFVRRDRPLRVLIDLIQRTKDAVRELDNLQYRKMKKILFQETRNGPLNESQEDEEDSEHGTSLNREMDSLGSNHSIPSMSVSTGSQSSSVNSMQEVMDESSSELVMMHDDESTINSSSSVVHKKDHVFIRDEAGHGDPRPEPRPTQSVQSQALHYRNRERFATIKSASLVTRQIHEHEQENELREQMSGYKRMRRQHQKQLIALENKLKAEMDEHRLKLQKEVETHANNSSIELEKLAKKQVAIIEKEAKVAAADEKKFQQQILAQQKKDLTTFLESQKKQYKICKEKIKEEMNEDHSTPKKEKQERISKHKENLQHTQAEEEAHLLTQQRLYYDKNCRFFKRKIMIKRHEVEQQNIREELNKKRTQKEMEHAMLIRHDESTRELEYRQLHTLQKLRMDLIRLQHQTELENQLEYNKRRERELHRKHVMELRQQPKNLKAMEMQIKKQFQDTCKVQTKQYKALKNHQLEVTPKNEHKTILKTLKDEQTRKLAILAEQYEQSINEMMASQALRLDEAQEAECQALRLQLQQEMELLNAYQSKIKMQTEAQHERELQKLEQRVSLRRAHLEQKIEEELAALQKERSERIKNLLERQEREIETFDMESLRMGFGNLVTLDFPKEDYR
Further: in the data inactive means no Kd found up to 30 µM.

Structure (SMILES) | Kd [1] | Kd [2] | Kd [3] | Kd [4] | Kd [5]
COCCN1CCN(Cc2ccc(-c3n[nH]c4c3C(=O)c3c(NC(=O)NN5CCOCC5)cccc3-4)cc2)CC1 [RGB-286638] | > 30 µM (inactive) | > 30 µM (inactive) | > 30 µM (inactive) | > 30 µM (inactive) | > 30 µM (inactive)
C=CC(=O)Nc1cccc(Nc2nc(Nc3ccc(N4CCN(C(C)=O)CC4)cc3OC)ncc2C(F)(F)F)c1 [ROCILETINIB] | > 30 µM (inactive) | > 30 µM (inactive) | > 30 µM (inactive) | > 30 µM (inactive) | > 30 µM (inactive)
CN1CCN(c2nc(C3=C(c4c[nH]c5ccccc45)C(=O)NC3=O)c3ccccc3n2)CC1 [SOTRASTAURIN] | > 30 µM (inactive) | > 30 µM (inactive) | > 30 µM (inactive) | > 30 µM (inactive) | > 30 µM (inactive)
CC(C)(O)CC(=O)NCCn1ccc2ncnc(Nc3ccc(Oc4cccc(C(F)(F)F)c4)c(Cl)c3)c21 [TAK-285] | > 30 µM (inactive) | > 30 µM (inactive) | > 30 µM (inactive) | > 30 µM (inactive) | > 30 µM (inactive)
Cc1cc(-c2cc(OC(=O)c3ccccc3)ccc2Cl)cc2nnc(Nc3ccc(OCCN4CCCC4)cc3)nc12 [TG100-801] | > 30 µM (inactive) | > 30 µM (inactive) | > 30 µM (inactive) | > 30 µM (inactive) | > 30 µM (inactive)
C[C@@H]1COC(Nc2ccc3ncnc(Nc4ccc(OCc5nccs5)c(Cl)c4)c3c2)=N1 [VARLITINIB] | > 30 µM (inactive) | > 30 µM (inactive) | > 30 µM (inactive) | > 30 µM (inactive) | > 30 µM (inactive)
COc1cc2ncnc(Nc3ccc(O)cc3)c2cc1OC [WHI-P131] | > 30 µM (inactive) | > 30 µM (inactive) | > 30 µM (inactive) | > 30 µM (inactive) | > 30 µM (inactive)

Now from value to compound:

Kd [1] | Kd [2] | Kd [3] | Kd [4] | Kd [5] | Structure (SMILES)
> 30 µM (inactive) | > 30 µM (inactive) | > 30 µM (inactive) | > 30 µM (inactive) | > 30 µM (inactive) | O=C(O)c1ccc2c(c1)nc(Nc1cccc(Cl)c1)c1ccncc12 [SILMITASERTIB]
> 30 µM (inactive) | > 30 µM (inactive) | > 30 µM (inactive) | > 30 µM (inactive) | > 30 µM (inactive) | Cc1cc(C(=O)Nc2cc(Oc3ccc4nc(NC(=O)C5CC5)cn4n3)ccc2C)n(C)n1 [TAK-593]
> 30 µM (inactive) | > 30 µM (inactive) | > 30 µM (inactive) | > 30 µM (inactive) | > 30 µM (inactive) | Cn1c(=O)c(F)c(Nc2ccc(I)cc2F)c2c(=O)n(C[C@@H](O)CO)cnc21 [TAK-733]
> 30 µM (inactive) | > 30 µM (inactive) | > 30 µM (inactive) | 1.23 µM (active) | > 30 µM (inactive) | O[C@H]1CC[C@H](Nc2ncc3nc(Nc4c(F)cc(F)cc4F)n([C@H]4CCOC4)c3n2)CC1 [TANZISERTIB]
> 30 µM (inactive) | > 30 µM (inactive) | > 30 µM (inactive) | > 30 µM (inactive) | > 30 µM (inactive) | CNC(=O)c1cc(COc2nnc(Nc3ccc(Cl)cc3)c3ccoc23)ccn1 [TELATINIB]
> 30 µM (inactive) | > 30 µM (inactive) | > 30 µM (inactive) | > 30 µM (inactive) | > 30 µM (inactive) | CNC(=O)c1cccc(-c2ccc3c(N4CCOC[C@@H]4C)nc(N4CCOC[C@@H]4C)nc3n2)c1 [VISTUSERTIB]
> 30 µM (inactive) | > 30 µM (inactive) | > 30 µM (inactive) | > 30 µM (inactive) | > 30 µM (inactive) | NC(=O)c1ccc(N(C(N)=O)c2c(F)cccc2F)nc1-c1ccc(F)cc1F [VX-702]
